The values that follow come from US8772499B2, “TRPV3 modulators” (AbbVie Inc., priority 2011, dated 2014).

Like-named read-outs stand apart in the source and are kept apart here. Where only a bound is given, the exact number is not on record here.

In data set [1] the target is T1, human TRPV3 (Homo sapiens, UniProt Q8NET8).
T1 construct: expressed in transfected cells
T1 sequence (Q8NET8 1-790): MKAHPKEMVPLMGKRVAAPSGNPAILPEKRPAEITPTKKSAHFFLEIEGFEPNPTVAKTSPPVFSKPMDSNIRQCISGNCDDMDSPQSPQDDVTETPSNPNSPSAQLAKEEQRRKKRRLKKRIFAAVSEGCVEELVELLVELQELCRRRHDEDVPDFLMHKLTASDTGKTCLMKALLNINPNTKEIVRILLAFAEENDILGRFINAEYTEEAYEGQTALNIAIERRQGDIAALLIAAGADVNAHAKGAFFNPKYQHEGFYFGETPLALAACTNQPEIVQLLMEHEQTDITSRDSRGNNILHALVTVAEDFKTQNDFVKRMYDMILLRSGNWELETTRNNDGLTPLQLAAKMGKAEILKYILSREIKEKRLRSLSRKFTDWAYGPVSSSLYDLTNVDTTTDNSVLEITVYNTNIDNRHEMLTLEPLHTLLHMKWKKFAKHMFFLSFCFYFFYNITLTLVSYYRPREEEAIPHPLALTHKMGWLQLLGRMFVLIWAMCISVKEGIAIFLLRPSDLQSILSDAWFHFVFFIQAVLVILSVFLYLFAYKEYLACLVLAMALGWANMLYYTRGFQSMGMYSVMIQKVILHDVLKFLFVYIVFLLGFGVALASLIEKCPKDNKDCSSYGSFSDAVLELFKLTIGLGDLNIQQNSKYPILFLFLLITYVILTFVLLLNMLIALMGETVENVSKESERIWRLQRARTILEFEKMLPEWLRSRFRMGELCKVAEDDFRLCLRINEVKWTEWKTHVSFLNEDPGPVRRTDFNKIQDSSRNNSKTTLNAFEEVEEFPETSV
Nature of the data set: In vitro antagonism of recombinant human TRPV3 activation (FLIPR Tetra calcium assay). The format is cell-based. Particulars: HEK293 cells stably expressing human TRPV3, agonist 2-APB at 80 μM. Summed up:
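Calcium flux read over a 10 min run: compound added at 10 s to Calcium-4-loaded human TRPV3-HEK293 cells, agonist 2-APB (80 μM, its EC80) after 3 min. IC50 derived from peak-minus-baseline signal as percentage of uninhibited 2-APB response, typically averaged over at least two runs.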

The nature of data set [2]: In vitro human microsomal stability assay. The format is in vitro ADME. The essentials: (§1)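 Compound incubated at 37 °C with NADPH-supplemented liver microsomes, either human or from Sprague-Dawley rat, to assess metabolic stability.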
Data set [3] in a line: In vitro rat microsomal stability assay. The format is in vitro ADME, rat (Sprague-Dawley). The essentials:
as §1

Where [4] appears, read: actual measured value shown parenthetically, in most cases average of at least two runs, read-out: IC50.
Setting [5] is: human, microsomes, 0.5 h, 0.5 μM, pH 7.4.
Setting [6] is: Sprague-Dawley, rat, microsomes, 0.5 h, 0.5 μM, pH 7.4.
Setting [7] is: reported range, read-out: IC50 (range class).
[8] abbreviates: human liver microsomes, 0.5 μM substrate, 0.25 mg/mL microsomal protein, pH 7.4, 37° C., NADPH, 30 minutes.
Setting [9] is: rat liver microsomes (Sprague-Dawley), 0.5 μM substrate, 0.25 mg/mL microsomal protein, pH 7.4, 37° C., NADPH, 30 minutes.

Take `OC1CC(c2cncc(C(F)(F)F)c2)(C(O)c2ccccn2)C1` [Example 304, trans-3-[(S)-hydroxy(pyridin-2-yl)methyl]-3-[5-(trifluoromethyl)pyridin-3-yl]cyclobutanol]: the IC50 in data set [1] (setting [4]) was 250 nM. Also, the “HUMAN MICROSOMAL STABILITY (% REMAINING AFTER 30 MINUTES)” value in data set [2] (setting [5]) is given as over 85%. Also, the “RAT MICROSOMAL STABILITY (% REMAINING AFTER 30 MINUTES)” value in data set [3] (setting [6]) is 44%.
The corresponding values for `OC(c1ccccn1)C1(c2ccc(F)c(F)c2)CCC1` (stereo not drawn) [Example 4, [1-(3,4-difluorophenyl)cyclobutyl](pyridin-2-yl)methanol] are 460 nM, 19% and 4.2%.
The corresponding values for `O[C@@H](c1ncccn1)C1(c2ccc(C(F)(F)F)cc2)CCC1` [Example 42, (R)-pyrimidin-2-yl{1-[4-(trifluoromethyl)phenyl]cyclobutyl}methanol] are over 10000 nM, 50% and 40%.
On the same counts, the results for `OC(c1ccccn1)C1(c2ccc(C(F)(F)F)cc2)CCCO1` (single isomer, unassigned) [Example 89, (syn)-pyridin-2-yl{2-[4-(trifluoromethyl)phenyl]tetrahydrofuran-2-yl}methanol] are 2000 nM, 70% and 4.3%.
Regarding `OC(c1ccccn1)C1(c2ccccc2F)CCCO1` (stereo not drawn) [Example 102], the IC50 in data set [1] (setting [4]) and in data set [1] (setting [7]) was over 20000 nM each time. Moreover, the “HUMAN MICROSOMAL STABILITY (% REMAINING AFTER 30 MINUTES)” value in data set [2] (setting [8]) was found to be 45%. The “RAT MICROSOMAL STABILITY (% REMAINING AFTER 30 MINUTES)” value in data set [3] (setting [9]) amounted to 0.55%.
For the compound `OC(c1ccccn1)C1(c2ccccc2OC(F)(F)F)CCCO1` (single isomer, unassigned) [Example 96, (anti)-pyridin-2-yl{2-[2-(trifluoromethoxy)phenyl]tetrahydrofuran-2-yl}-methanol], in data set [1] (setting [4]), the IC50 was found to be 1220 nM. The “HUMAN MICROSOMAL STABILITY (% REMAINING AFTER 30 MINUTES)” value in data set [2] (setting [5]) is on record as 0.68%. Besides, the “RAT MICROSOMAL STABILITY (% REMAINING AFTER 30 MINUTES)” value in data set [3] (setting [6]) is 0.15%.
Turning to `OC(C1CCCc2cccnc21)C1(c2cccc(OC(F)(F)F)c2)CCC1` (stereo not drawn) [Example 188, (syn)-5,6,7,8-tetrahydroquinolin-8-yl{1-[3-(trifluoromethoxy)phenyl]-cyclobutyl}methanol], the IC50 in data set [1] (setting [4]) and in data set [1] (setting [7]) was over 20000 nM each time. In addition, the “HUMAN MICROSOMAL STABILITY (% REMAINING AFTER 30 MINUTES)” value in data set [2] (setting [5]) is given as 0.16%. For the same compound, in data set [3] (setting [6]), the “RAT MICROSOMAL STABILITY (% REMAINING AFTER 30 MINUTES)” value is given as under 0.01%.
Regarding `OC(C1CCCc2cccnc21)C1(c2ccc(OC(F)(F)F)cc2)CCC1` (single isomer, unassigned) [Example 177, (anti)-5,6,7,8-tetrahydroquinolin-8-yl{1-[4-(trifluoromethoxy)phenyl]-cyclobutyl}methanol], the IC50 in data set [1] (setting [4]) amounted to 3380 nM. For the same compound, the “HUMAN MICROSOMAL STABILITY (% REMAINING AFTER 30 MINUTES)” value in data set [2] (setting [5]) came to 0.12%. The “RAT MICROSOMAL STABILITY (% REMAINING AFTER 30 MINUTES)” value in data set [3] (setting [6]) was under 0.01%.
On to `O[C@H](c1ccccn1)[C@]1(c2cccc(C(F)(F)F)c2)C[C@@H](O)C1` [Example 264, trans-3-[(S)-hydroxy(pyridin-2-yl)methyl]-3-[3-(trifluoromethyl)phenyl]-cyclobutanol], for which, in data set [1] (setting [4]), the IC50 is 230 nM. Further, the “HUMAN MICROSOMAL STABILITY (% REMAINING AFTER 30 MINUTES)” value in data set [2] (setting [5]) amounted to 56%. Besides, the “RAT MICROSOMAL STABILITY (% REMAINING AFTER 30 MINUTES)” value in data set [3] (setting [6]) is 59%.
The corresponding values for `OC(c1ccccn1)C1(c2ccc(Cl)c(Cl)c2)CC(F)(F)C1` (stereo not drawn) [Example 82, [1-(3,4-dichlorophenyl)-3,3-difluorocyclobutyl](pyridin-2-yl)methanol] are 780 nM, 35% and 16%.
With `OC(CC1(c2ccc(OC(F)(F)F)cc2)CCC1)c1ccccn1` (stereo not drawn) [Example 76, 1-(pyridin-2-yl)-2-{1-[4-(trifluoromethoxy)phenyl]cyclobutyl}ethanol], the IC50 in data set [1] (setting [4]) is 650 nM. In addition, in data set [2] (setting [5]), the “HUMAN MICROSOMAL STABILITY (% REMAINING AFTER 30 MINUTES)” value stood at 39%. In addition, the “RAT MICROSOMAL STABILITY (% REMAINING AFTER 30 MINUTES)” value in data set [3] (setting [6]) amounted to 0.47%.
The corresponding values for `OC1CC(c2ccc(Cl)c(Cl)c2)(C(O)c2ccccn2)C1` (single isomer, unassigned) [Example 247] are 4310 nM, 62% and over 85%.
On to `OC(c1ccccn1)C1(c2nc3ccc(F)cc3s2)CCC1` (stereo not drawn) [Example 300, [1-(6-fluoro-1,3-benzothiazol-2-yl)cyclobutyl](pyridin-2-yl)methanol], for which the IC50 in data set [1] (setting [4]) worked out at 4920 nM. The “HUMAN MICROSOMAL STABILITY (% REMAINING AFTER 30 MINUTES)” value in data set [2] (setting [5]) is reported as 35%. Also, the “RAT MICROSOMAL STABILITY (% REMAINING AFTER 30 MINUTES)” value in data set [3] (setting [6]) was found to be 0.020%.
The corresponding values for `OC(c1ccccn1)C1(c2ccc(Cl)c(Cl)c2)CCOCC1` (stereo not drawn) [Example 59, [4-(3,4-dichlorophenyl)tetrahydro-2H-pyran-4-yl](pyridin-2-yl)methanol] are 1790 nM, 45% and 12%.
Take `O[C@H](c1ccccn1)C1(c2cc(C(F)(F)F)ccn2)CC(F)(F)C1` [Example 126, (S)-{3,3-difluoro-1-[4-(trifluoromethyl)pyridin-2-yl]cyclobutyl}(pyridin-2-yl)methanol]: in data set [1] (setting [4]), the IC50 came to 820 nM. In addition, the “HUMAN MICROSOMAL STABILITY (% REMAINING AFTER 30 MINUTES)” value in data set [2] (setting [5]) was 21%. Besides, the “RAT MICROSOMAL STABILITY (% REMAINING AFTER 30 MINUTES)” value in data set [3] (setting [6]) amounted to 7.7%.
On the same counts, the results for `OC(c1ccccn1)C1(c2ccc(Cl)c(C(F)(F)F)c2)CC(F)(F)C1` (stereo not drawn) [Example 138, {1-[4-chloro-3-(trifluoromethyl)phenyl]-3,3-difluorocyclobutyl}(pyridin-2-yl)methanol] are 830 nM, 41% and 18%.
The corresponding values for `OC(c1ccccn1)C1(c2cccc(OC(F)(F)F)c2)CCC1` (stereo not drawn) [Example 11, pyridin-2-yl{1-[3-(trifluoromethoxy)phenyl]cyclobutyl}methanol] are 400 nM, 0.72% and 0.80%.
The corresponding values for `OC(c1ccccn1)C1(C2CCCC2)CCC1` (stereo not drawn) [Example 163, (1-cyclopentylcyclobutyl)(pyridin-2-yl)methanol] are 4900 nM, 0.11% and under 0.01%.
Take `OC(c1ccccn1)C1(c2ccc(OC(F)(F)F)cc2)CCCO1` (single isomer, unassigned) [Example 95, (syn)-pyridin-2-yl{2-[4-(trifluoromethoxy)phenyl]tetrahydrofuran-2-yl}methanol]: the IC50 in data set [1] (setting [4]) is 1850 nM. The “HUMAN MICROSOMAL STABILITY (% REMAINING AFTER 30 MINUTES)” value in data set [2] (setting [5]) is 57%. For the same compound, in data set [3] (setting [6]), the “RAT MICROSOMAL STABILITY (% REMAINING AFTER 30 MINUTES)” value came to 0.61%.
In the case of `OC(c1ccccn1)C1(c2ccnc(C(F)(F)F)c2)CC2(C1)OCCO2` (stereo not drawn) [Example 297, pyridin-2-yl{2-[2-(trifluoromethyl)pyridin-4-yl]-5,8-dioxaspiro[3.4]oct-2-yl}methanol], the IC50 in data set [1] (setting [4]) and in data set [1] (setting [7]) was over 20000 nM in each case. Also, in data set [2] (setting [5]), the “HUMAN MICROSOMAL STABILITY (% REMAINING AFTER 30 MINUTES)” value is on record as over 85%. Besides, in data set [3] (setting [6]), the “RAT MICROSOMAL STABILITY (% REMAINING AFTER 30 MINUTES)” value was determined as 2.0%.
For `OC(c1ccccn1)C1(c2ccc(F)c(F)c2)CCCO1` (single isomer, unassigned) [Example 109, (syn)-[2-(3,4-difluorophenyl)tetrahydrofuran-2-yl](pyridin-2-yl)methanol], the IC50 in data set [1] (setting [4]) was 5810 nM. In addition, in data set [2] (setting [5]), the “HUMAN MICROSOMAL STABILITY (% REMAINING AFTER 30 MINUTES)” value is listed as 45%. Moreover, in data set [3] (setting [6]), the “RAT MICROSOMAL STABILITY (% REMAINING AFTER 30 MINUTES)” value worked out at 0.74%.
Consider `CN1CCC(c2cccc(OC(F)(F)F)c2)(C(O)c2ccccn2)CC1` (stereo not drawn) [Example 146, {1-methyl-4-[3-(trifluoromethoxy)phenyl]piperidin-4-yl}(pyridin-2-yl)-methanol], for which the IC50 in data set [1] (setting [4]) came out at 12800 nM. Further, the “HUMAN MICROSOMAL STABILITY (% REMAINING AFTER 30 MINUTES)” value in data set [2] (setting [8]) was 84%. In data set [3] (setting [9]), the “RAT MICROSOMAL STABILITY (% REMAINING AFTER 30 MINUTES)” value turned out to be 8.9%.

For orientation: IC50 means the concentration at which inhibition is half-maximal.
